This passage reports inhibition and Ki results from patent publication US6818643B1, “Neurotrophic bicyclic diamides” (Bristol-Myers Squibb Company, priority 1999, dated 2004).

Read-outs that look alike come from different tables or passages of the source.

For the assay, the target named is FKBP12 (Homo sapiens, UniProt P62942). In words: Fluorescence Polarization (FP) Assay of FKBP12 Binding. The conditions noted are these: for inhibition at 1 µM: read-out: % FP inhibition at 1 μM; for Ki: rotamase Ki derived from FP assay. As for the experimental part: Fluorescence Polarization (FP) Assay of FKBP12 Binding
Chain of FKBP12 (P62942 whole entry, species assumed): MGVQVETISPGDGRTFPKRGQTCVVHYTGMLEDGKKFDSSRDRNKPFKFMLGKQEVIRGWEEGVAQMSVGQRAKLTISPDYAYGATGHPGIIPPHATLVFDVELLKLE
The buffer (25 mM HEPES, 100 mM sodium chloride, pH 7.5) with pre-mixed enzyme and fluorescent ligand is distributed into wells (190 μL/well). Inhibitors are added as 10 μL of a 10% dimethylsulfoxide solution in the same buffer. FP is measured with an excitation wavelength of 485 nm and emission wavelength of 520 nm.

The mark [1] stands for this setting: Table 1, 1 μM compound, 100 nM fluorescent ligand, 200 nM FKBP12.
Setting [2] is: Table 2, 1 μM compound, 100 nM fluorescent ligand, 200 nM FKBP12.

Broadly, the inhibition is the percentage by which the read-out fell short of the control. For the compound `COc1ccc(CCCN2CC3CCC(C2=O)N3C(=O)C(F)(F)c2cc(OC)c(OC)c(OC)c2)cc1OC` [Example 28, (1S,5R)-8-(3,4,5-Trimethoxyphenyl)difluoroacetyl-3,8-diaza-3-[3-(3,4-dimethoxyphenyl)propyl]bicyclo[3.2.1]octan-2-one], under setting [1], the inhibition at 1 µM is 13%.

Turning to `COc1ccc(CCN2CC3CCC(C2=O)N3C(=O)C(=O)c2cc(OC)c(OC)c(OC)c2)cc1OC` [Example 2, (1S,5R)-8-(3,4,5-Trimethoxyphenyl)oxalyl-3,8-diaza-3-[2-(3,4-dimethoxyphenyl)ethyl]bicyclo[3.2.1]octan-2-one], under setting [1], the inhibition at 1 µM was found to be 3%.

For `COC(=O)C(=O)N1C2CCCC1C(=O)N(CCCc1cc(OC)c(OC)c(OC)c1)C2` (centres unmarked) [Example 40, Methyl-2-{3,9-diaza-2-oxo-3-[3-(3,4,5-trimethoxyphenyl)propyl]bicyclo[3.3.1]non-9-yl}-2-oxoacetate], the inhibition at 1 µM under setting [1] amounted to 6%.

`COc1cc(C(F)(F)C(=O)N2C3CCC2C(=O)N(CC(CCCc2ccccc2)CCCc2ccccc2)C3)cc(OC)c1OC` [Example 33, (1S,5R)-8-(3,4,5-Trimethoxyphenyl)difluoroacetyl-3,8-diaza-3-[5-phenyl-2-(3-phenyl-propyl)pentyl]bicyclo[3.2.1]-octan-2-one]: the inhibition at 1 µM under setting [2] was 7%.

For the compound `COc1cc(C(F)(F)C(=O)N2C3CCC2C(=O)N(C(CCc2ccccc2)CCc2ccccc2)C3)cc(OC)c1OC` [Example 30, (1S,5R)-8-(3,4,5-Trimethoxyphenyl)difluoroacetyl-3,8-diaza-3-[3-phenyl-1-(2-phenylethyl)propyl]bicyclo[3.2.1]octan-2-one], the inhibition at 1 µM under setting [2] was determined as 4%.

Consider `CCC(C)(C)C(=O)C(=O)N1C2CCC1C(=O)N(CCCc1cc(OC)c(OC)c(OC)c1)C2` (centres unmarked) [Example 39, 1-{3,8-Diaza-2-oxo-3-[3-(3,4,5-trimethoxyphenyl)propyl]bicyclo[3.2.1]oct-8-yl}-3,3-dimethylpentane-1,2-dione], for which the inhibition at 1 µM under setting [1] came to 4%.

`COc1cc(C(=O)C(=O)N2C3CCC2C(=O)N(CC(CCCc2ccccc2)CCCc2ccccc2)C3)cc(OC)c1OC` [Example 10, (1S,5R)-8-(3,4,5-Trimethoxyphenyl)oxalyl-3,8-diaza-3-[5-phenyl-2-(3-phenyl-propyl)pentyl]bicyclo[3.2.1]-octan-2-one]: the inhibition at 1 µM under setting [2] was 14%.

A word on the Ki: it is the equilibrium dissociation constant of an inhibitor or competing ligand from its target. For the setting “Table 2”, `COc1ccc(CCCC(CCCc2ccc(OC)c(OC)c2)CN2CC3CCCC(C2=O)N3C(=O)C(=O)c2cc(OC)c(OC)c(OC)c2)cc1OC` (centres unmarked) [Example 24, 9-(3,4,5-Trimethoxyphenyl)oxalyl-3,9-diaza-3-[5-(3,4-dimethoxyphenyl)-2-(3-(3,4-dimethoxy-phenyl)propyl)pentyl]bicyclo-[3.3.1]nonan-2-one] registered an inhibitory constant (Ki) of 21 nM.

For `COc1ccc(CCC(Cc2ccc(OC)c(OC)c2)CN2CC3CCCC(C2=O)N3C(=O)C(=O)c2cc(OC)c(OC)c(OC)c2)cc1OC` (centres unmarked) [Example 25, 9-(3,4,5-Trimethoxyphenyl)oxalyl-3,9-diaza-3-[4-(3,4-dimethoxyphenyl)-2-((3,4-dimethoxy-phenyl)methyl)butyl]bicyclo-[3.3.1]nonan-2-one], the affinity (Table 2) corresponds to a Ki of 18 nM.

In the case of `COc1cc(CCCC(CCCc2ccccc2)CN2CC3CCC(C2=O)N3C(=O)C(F)(F)c2cc(OC)c(OC)c(OC)c2)cc(OC)c1OC` [Example 34, (1S,5R)-8-(3,4,5-Trimethoxyphenyl)difluoroacetyl-3,8-diaza-3-[2-(3-phenylpropyl)-5-(3,4,5-trimethoxyphenyl)pentyl]bicyclo[3.2.1]octan-2-one], under setting [2], the inhibition at 1 µM turned out to be 11%.

With `CCC(C)(C)C(=O)C(=O)N1C2CCCC1C(=O)N(CCCc1cc(OC)c(OC)c(OC)c1)C2` (centres unmarked) [Example 41, 1-{3,9-Diaza-2-oxo-3-[3-(3,4,5-trimethoxyphenyl)propyl]bicyclo[3.3.1]non-9-yl}-3,3-dimethylpentane-1,2-dione], the inhibition at 1 µM under setting [1] was determined as 4%.

Consider `COc1cc(C(=O)C(=O)N2C3CCC2C(=O)N(CCCOc2cccnc2)C3)cc(OC)c1OC` [Example 8, (1S,5R)-8-(3,4,5-Trimethoxyphenyl)oxalyl-3,8-diaza-3-(3-(3-pyridyloxy)propyl)-bicyclo[3.2.1]octan-2-one], for which the inhibition at 1 µM under setting [1] came out at 98%.

In the case of `COc1ccc(CCC(CCc2ccccc2)CN2CC3CCCC(C2=O)N3C(=O)C(=O)c2cc(OC)c(OC)c(OC)c2)cc1OC` (centres unmarked) [Example 26, 9-(3,4,5-Trimethoxyphenyl)oxalyl-3,9-diaza-3-[4-(3,4-dimethoxyphenyl)-2-(2-phenylethyl)butyl]-bicyclo[3.3.1]nonan-2-one], affinity (Table 2) was put at a Ki of 51 nM.

As for `COc1ccc(CCCC(CCCc2ccccc2)N2CC3CCC(C2=O)N3C(=O)C(=O)c2cc(OC)c(OC)c(OC)c2)cc1OC` [Example 9, (1S,5R)-8-(3,4,5-Trimethoxyphenyl)oxalyl-3,8-diaza-3-[4-(3,4-dimethoxyphenyl)-1-(3-phenylpropyl)butyl]bicyclo[3.2.1]octan-2-one], the inhibition at 1 µM under setting [2] came to 1%.

As for `COc1ccc(CCCC(CCCc2ccc(OC)c(OC)c2)CN2C[C@H]3CC[C@@H](C2=O)N3C(=O)C(=O)c2cc(OC)c(OC)c(OC)c2)cc1OC` [Example 12, (1S,5R)-8-(3,4,5-Trimethoxyphenyl)oxalyl-3,8-diaza-3-[5-(3,4-dimethoxyphenyl)-2-(3-(3,4-dimethoxyphenyl)propyl)pentyl]bicyclo[3.2.1]octan-2-one], the inhibitory constant (Ki) (Table 2) came out at 47 nM.

Regarding `COc1ccc(CCCCN2CC3CCC(C2=O)N3C(=O)C(=O)c2cc(OC)c(OC)c(OC)c2)cc1OC` [Example 4, (1S,5R)-8-(3,4,5-Trimethoxyphenyl)oxalyl-3,8-diaza-3-[4-(3,4-dimethoxyphenyl)butyl]bicyclo[3.2.1]octan-2-one], the inhibition at 1 µM under setting [1] was found to be 15%.

Regarding `COc1cc(C(=O)C(=O)N2[C@@H]3CC[C@H]2C(=O)N(CCCc2ccccc2)C3)cc(OC)c1OC` [Example 1, (1S,5R)-8-(3,4,5-Trimethoxyphenyl)oxalyl-3,8-diaza-3-(3-phenylpropyl)bicyclo[3.2.1]octan-2-one], the inhibition at 1 µM under setting [1] was determined as 34%. In addition, under “Table 1”, the Ki came out at 699 nM.

As to `COc1cc(C(=O)C(=O)N2C3CCCC2C(=O)N(CC(CCCc2ccccc2)CCCc2ccccc2)C3)cc(OC)c1OC` (centres unmarked) [Example 22, 9-(3,4,5-Trimethoxyphenyl)oxalyl-3,9-diaza-3-[5-phenyl-2-(3-phenylpropyl)pentyl]bicyclo[3.3.1]nonan-2-one], the inhibition at 1 µM under setting [2] worked out at 17%.

With `COc1cc(CCCC(CCCc2ccccc2)CN2CC3CCCC(C2=O)N3C(=O)C(=O)c2cc(OC)c(OC)c(OC)c2)cc(OC)c1OC` (centres unmarked) [Example 23, 9-(3,4,5-Trimethoxyphenyl)oxalyl-3,9-diaza-3-[2-(3-phenylpropyl)-5-(3,4,5-trimethoxyphenyl)pentyl]bicyclo[3.3.1]-nonan-2-one], under setting [2], the inhibition at 1 µM was found to be 81%. Affinity (Table 2) was put at a Ki of 44 nM.

As to `COc1cc(C(F)(F)C(=O)N2C3CCC2C(=O)N(CCCc2ccccc2)C3)cc(OC)c1OC` [Example 27, (1S,5R)-8-(3,4,5-Trimethoxyphenyl)difluoroacetyl-3,8-diaza-3-(3-phenylpropyl)bicyclo[3.2.1]octan-2-one], the inhibition at 1 µM under setting [1] amounted to 22%.

Take `COc1ccc(CCCN2CC3CCCC(C2=O)N3C(=O)C(F)(F)c2cc(OC)c(OC)c(OC)c2)cc1OC` (centres unmarked) [Example 35, 9-(3,4,5-Trimethoxyphenyl)difluoroacetyl-3,9-diaza-3-[3-(3,4-dimethoxyphenyl)propyl]bicyclo[3.3.1]nonan-2-one]: the inhibition at 1 µM was found to be 47%. Where the note is “Table 1”, this compound showed an inhibition constant (Ki) of 360 nM.

Turning to `COc1cc(CCCN2C[C@H]3CC[C@@H](C2=O)N3C(=O)C(=O)c2cc(OC)c(OC)c(OC)c2)cc(OC)c1OC` [Example 6, (1S,5R)-8-(3,4,5-Trimethoxyphenyl)oxalyl-3,8-diaza-3-[3-(3,4,5-trimethoxyphenyl)propyl]bicyclo[3.2.1]octan-2-one], the inhibition at 1 µM under setting [1] is 47%. Where the note is “Table 1”, this compound registered an inhibition constant Ki of 242 nM.

In turn, `COc1cc(C(=O)C(=O)N2C3CCCC2C(=O)N(CCCCc2ccccc2)C3)cc(OC)c1OC` (centres unmarked) [Example 19, 9-(3,4,5-Trimethoxyphenyl)oxalyl-3,9-diaza-3-(4-phenylbutyl)bicyclo[3.3.1]nonan-2-one] came in with a Ki (Table 1) of 85 nM.

In the case of `COc1ccc(CCCC(CCCc2ccccc2)N2CC3CCCC(C2=O)N3C(=O)C(=O)c2cc(OC)c(OC)c(OC)c2)cc1OC` (centres unmarked) [Example 21, 9-(3,4,5-Trimethoxyphenyl)oxalyl-3,9-diaza-3-[4-(3,4-dimethoxyphenyl)-1-(3-phenylpropyl)butyl]bicyclo[3.3.1]nonan-2-one], the inhibition at 1 µM under setting [2] is 1%.

`COc1cc(C(=O)C(=O)N2C3CCC2C(=O)N(CCCCc2ccccc2)C3)cc(OC)c1OC` [Example 7, (1S,5R)-8-(3,4,5-Trimethoxyphenyl)oxalyl-3,8-diaza-3-(4-phenylbutyl)bicyclo[3.2.1]octan-2-one]: the inhibition at 1 µM under setting [1] is 6%.

Compound `COc1cc(C(=O)C(=O)N2C3CCCC2C(=O)N(CCCCCc2ccccc2)C3)cc(OC)c1OC` (centres unmarked) [Example 20, 9-(3,4,5-Trimethoxyphenyl)oxalyl-3,9-diaza-3-(5-phenylpentyl)bicyclo[3.3.1]nonan-2-one] came in with an inhibitory constant (Ki) (Table 1) of 152 nM.

For the compound `COc1ccc(CCCCN2CC3CCC(C2=O)N3C(=O)C(F)(F)c2cc(OC)c(OC)c(OC)c2)cc1OC` [Example 29, (1S,5R)-8-(3,4,5-Trimethoxyphenyl)difluoroacetyl-3,8-diaza-3-[4-(3,4-dimethoxyphenyl)butyl]bicyclo[3.2.1]octan-2-one], the inhibition at 1 µM under setting [1] turned out to be 8%.

For `COc1ccc(CCC(Cc2ccc(OC)c(OC)c2)CN2C[C@H]3CC[C@@H](C2=O)N3C(=O)C(=O)c2cc(OC)c(OC)c(OC)c2)cc1OC` (stereo partly drawn) [Example 13, (1S,5R)-8-(3,4,5-Trimethoxyphenyl)oxalyl-3,8-diaza-3-[4-(3,4-dimethoxyphenyl)-2-((3,4-dimethoxyphenyl)methyl)butyl]bicyclo[3.2.1]octan-2-one], the Ki (Table 2) was 122 nM.
